Assay results as given in US6749840B2, “Inhibition of pigmentation by inhibition of fatty acid synthase” (New York University, priority 2001, dated 2004).

Test system: Melan-a melanocytes
Assay: Assay for melanin production in melan-a melanocytes (absorbance of melanin at 490 nm per protein)
Type: cell-based, mice
Conditions: at 3 μM; average; results of FIG. 1
Description: Melan-a melanocytes (α/α, P/P), an immortalized melanocyte line derived from C57BLI6J mice wild type at the p locus (Bennett et al. (1987), Int. J. Cancer 39:414-418), were incubated in Dulbecco's modification of Eagle's medium (DMEM: 10% fetal calf serum, 2 mM L-glutamine, 1 mM sodium pyruvate, 1% MEM non-essential amino acids 100×, […]). Immediately before using the medium, tetradecanoyl phorbol acetate (TPA) was added at 200 nM. Cells were seeded in T-25 flasks with 4×10^4 cells/ml×4.5 ml/flask (10-20% confluent) and were grown at 37° C. with 5% CO2. Twenty-four hours later, a compound to be tested (diluted in 0.5 ml media) was added to the media. Forty-eight hours after the addition of drug, both the media and drug were changed. Cells were harvested after an additional 48 or 72 hours (100% confluent). In harvesting the cells, the reagents and cells were kept at 4° C. Briefly, the media was removed from the cells, and one milliliter of media was reserved if needed for the tyrosinase assay. The cells were then rinsed with approximately 500 μl cold 1×phosphate buffered saline (PBS) until the PBS rinse was clear. […] 2 N NaOH in 20% DMSO was used as a blank, and the samples were read at a wavelength of 490 nm. The data were reported as absorbance of melanin per protein calculated for the total sample. […]

## C/C=C/C/C=C/CCC(=O)[C@H]1O[C@H]1C(N)=O [cerulenin, [2R,3S]-2,3-epoxy-4-oxo-7,10-trans, trans-dodecanoic acid amide]
  decrease of pigmentation in melan-a melanocytes: 50%
